Experimental data: patent US20130210034A1, “COMPLEX PHOSPHOPROTEIN ACTIVATION PROFILES” (BECKMAN COULTER, INC., priority 2005, published 2013)

B1: FMS-Like Tyrosine Kinase 3 (FLT-3) ligand (protein, UniProt P49771 27-235, looked up)
Fms-related tyrosine kinase 3 …: TQDCSFQHSPISSDFAVKIRELSDYLLQDYPVTVASNLQDEELCGGLWRLVLAQRWMERLKTVAGSKMQGLLERVNTEIHFVTKCAFQPPPSCLRFVQTNISRLLQETSEQLVALKPWITRQNFSRCLELQCQPDSSTLPPPWSPRPLEATAPTAPQPPLLLLLLLPVGLLLLAAAWCLHWQRTRRRTPRPGEQVPPVPSPQDLLLVEH

Tests used:
pAKT = assay: Cytokine-stimulated phosphorylation in AML cell populations (BM or PB of AML patients); format: cell-based, human
Experimental: (§1) To assess the signal transduction response after growth factor simulation, a series comprising two sets of tubes including about 3×10^6 cells/100 μL were incubated at 37° C. for 30 minutes. After this pre-incubation period, tubes with then processes with either a stimulant or inhibitor. […] To examine the effects of protein phosphorylation inhibition, tubes were incubated with an inhibitor cocktail comprising 100 μM/100 μL UO126, 1 μM/100 μL LY294002, and 1 μM/100 μL rapamycin. One unstimulated tube receiving no stimulant or inhibitor was processed to assess basal levels of phospho-protein expression. After stimulation the cells were immediately fixed in 10% formaldehyde solution at 37° C. Pre-labeling with CD13, CD16 and CD64 antibodies was carried out 20 minutes prior to formaldehyde fixation. After fixation, one set of tubes was permeabilized without methanol for pAKT, pERK and pS6 staining and the other for 80% methanol permeabilized for pSTAT3 and pSTAT5 staining. After permeablization, the cells were washed in PBS with 2% BSA and blocked by re-suspended in 75 μL of PBS comprising 25% heat inactivated normal mouse serum, 25% normal rabbit serum. To stain cells with fluorescent conjugated monoclonal antibodies, samples were incubated on ice for 45 minutes in 100 μL of an antibody staining solution including either: 1) CD15-Pacific Orange, CD34-Phycoerythrin-Texas Red, CD117-Phycoerythrin-Cyanin 5.5, CD45-Allophycocyanin-Alexa Fluor 750 (or CD45-Pacific Orange, in which case CD15-Pacific Orange was omitted), pS6-Pacific Blue, pERK-Alexa Fluor 488 and pAKT-Alexa Fluor 647 or 2) CD15-Pacific Orange, CD34-Phycoerythrin-Texas Red, CD117-Phycoerythrin-Cyanin 5.5, CD45-Allophycocyanin-Alexa Fluor 750 or CD45-Pacific Blue, pSTAT3-Alexa Fluor 488 and pSTAT5-Phycoerythrin. The stained cells were washed twice with ice cold PBS containing 2% BSA and centrifuged at 800 g for 6 minutes at 4° C. The supernatant was discarded and cells re-suspended in 250 μL of chilled wash buffer for data acquisition. Stained cells were examined using either GALIOS flow cytometer (Beckman Coulter) or CYAN ADP (Beckman Coulter) equipped with 488 nm, 405 nm and 635 nm lasers to detect the degree of fluorescence. Data were analyzed using FCS Express (De Novo Software, CA) analysis software.
(§2) Specific phosphoprotein expression of pERK, pS6, pAKT, pSTAT5, and pSTAT3 was examined in seven discrete phenotypically defined populations based on 7-color immunophenotyping (FIG. 1). The percent of responding (phosphorprotein positive) cells for each of these populations was determined from individual single parameter histograms based on a fixed integration region set on the inhibitor treated control at about 3% positives.
(§3) Using normal BM signaling profiles of Example 1 as comparison, analysis of 14 AML samples was carried out to identify differences in signaling responses. White blood cells from BM or peripheral blood (PB) samples were obtained from 14 diagnosed AML patients undergoing routine clinical flow cytometry analysis using IRB approved protocols. The AML patients included newly diagnosed AML, AMLs arising in a background of MDS, therapy related AMLs and previously diagnosed AML post therapy. The median age of the patients at diagnosis was 51 years (range: 29-75 years) and represented 5 female and 9 male patients. The median white blood cell was 6.4 million/mL (range: 0.9-106 M/mL) and the BM morphologic blast count was an average of 46% (range: 0%-90%).
(§4) Experiments performed to assess the signal transduction response after growth factor simulation were performed as described for Example 1.

pERK = assay: as above; format: cell-based, human
Experimental: as §1, §2, §3, §4

Molecule	pAKT, AML Sample (pAKT; patient AML5 (Example 3))	pAKT activation kinetics compared to normal (pAKT; patient AML7 (Example 3), abnormal blasts)	pAKT, AML Sample (pAKT; patient AML11 (Example 3))	pERK, AML Sample (pERK; patient AML2 (Example 3))	pERK, AML Sample (first AML5 line) (pERK; patient AML5 (Example 3), normal value of this line is an S/N ratio)	pERK, AML Sample (pERK; patient AML6 (Example 3))	pERK, AML Sample (pERK; patient AML11 (Example 3))	pERK, AML Sample (pERK; patient AML12 (Example 3))	pERK, AML Sample (pERK; patient AML13 (Example 3))	pERK, AML Sample (pERK; patient AML1 (Example 3))	pERK, AML Sample (pERK; patient AML5 (Example 3))	pERK, AML Sample (pERK; patient AML9 (Example 3))
Stem Cell Factor [SCF]	typical upregulation of pAKT	significant delayed activation, and prolonged expression	3.2	4.8	3.4	3.0	3.3	3.3	4.8			
B1	8.1									10.3	8.1	12.0
